Columns and labels:
[1] = biological target: FGFR2 (Homo sapiens (Human), UniProt P21802); test: FGFR2 Biochemical Caliper Assay
Method: Compounds of the present invention were also tested in a FGFR2 Biochemical Caliper Assay. Compounds were prepared in 10 mM DMSO solution and serially diluted into 11 concentrations by 3-fold dilution. […] 5 uL of ATP solution (100 uM) was added to start the reaction and the plate was incubated for 90 minutes, then 70 uL of stopping buffer (0.5M EDTA) was added to terminate the reaction. Each well was analyzed using EZ reader.

[2] = system: SNU16 cells; test: SNU16 Cancer Cell Line Proliferation Assay; type: cell-based; conditions: Homo sapiens; SNU-16 cells
Outline: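 Proliferation read-out: CellTiter Glo chemiluminescence after 96 h compound exposure. Test compounds, serially diluted 3-fold over 11 points from a 10 mM DMSO stock, were added to SNU16 cells plated 24 h earlier at 37 degrees.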

Sequence of FGFR2 (P21802 22-821): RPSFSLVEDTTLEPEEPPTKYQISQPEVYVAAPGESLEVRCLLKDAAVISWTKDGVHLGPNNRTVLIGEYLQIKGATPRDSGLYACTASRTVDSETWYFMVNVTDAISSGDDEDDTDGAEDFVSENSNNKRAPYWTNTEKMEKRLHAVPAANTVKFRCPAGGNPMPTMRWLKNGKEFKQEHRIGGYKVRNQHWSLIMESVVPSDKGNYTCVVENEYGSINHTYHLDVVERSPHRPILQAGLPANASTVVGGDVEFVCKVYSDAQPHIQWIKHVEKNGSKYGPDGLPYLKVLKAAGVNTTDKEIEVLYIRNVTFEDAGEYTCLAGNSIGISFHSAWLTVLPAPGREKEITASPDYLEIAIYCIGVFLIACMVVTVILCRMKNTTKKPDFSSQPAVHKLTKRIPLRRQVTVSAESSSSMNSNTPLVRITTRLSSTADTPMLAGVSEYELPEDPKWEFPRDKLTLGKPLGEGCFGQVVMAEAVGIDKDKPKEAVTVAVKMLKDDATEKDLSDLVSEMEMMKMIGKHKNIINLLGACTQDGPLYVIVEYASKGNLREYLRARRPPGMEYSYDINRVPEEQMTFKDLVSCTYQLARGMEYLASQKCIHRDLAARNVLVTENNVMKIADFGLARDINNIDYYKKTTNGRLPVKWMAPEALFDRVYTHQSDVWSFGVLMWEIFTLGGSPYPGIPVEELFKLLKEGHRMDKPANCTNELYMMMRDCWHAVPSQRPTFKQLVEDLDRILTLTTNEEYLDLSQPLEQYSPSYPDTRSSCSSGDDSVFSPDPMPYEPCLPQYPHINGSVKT

Row | SMILES | IC50 [1] | IC50 [2]
1 | C=CC(=O)N1CCC(c2c(-c3cnn(C4CCNCC4)c3)c3c(N)ncnc3n2C)C1 (stereo not shown) [Example 742] | 1 to 100 µM | 1 to 100 µM
2 | C=CC(=O)N1CCC(c2c(-c3cnn(C4CCN(C)CC4)c3)c3c(N)ncnc3n2C)C1 (stereo not shown) [Example 743] | 0.25 to 1 µM | 1 to 100 µM
3 | C=CC(=O)N1CCC(c2[nH]c3ncnc(N)c3c2-c2ccc(Oc3cccc(C)n3)cc2)C1 (stereo not shown) [Example 744] | < 0.1 µM | ≤ 0.1 µM
4 | C=CC(=O)N1CCC(c2c(-c3ccc(Oc4ccc(Cl)c(C)n4)cc3)c3c(N)ncnc3n2C)C1 (stereo not shown) [Example 745] | 1 to 100 µM | 1 to 100 µM
5 | C=CC(=O)N1CCC(c2[nH]c3ncnc(N)c3c2-c2ccc(C(=O)N3CCCC3)cc2)C1 (stereo not shown) [Example 746] | < 0.1 µM | 0.25 to 1 µM
6 | CC#CC(=O)N1CCC(c2c(-c3ccc(C(=O)N4CCCC4)cc3)c3c(N)ncnc3n2C)C1 (stereo not shown) [Example 747] | < 0.1 µM | ≤ 0.1 µM
7 | C=CC(=O)N1CCC(c2c(-c3ccc(OCc4ccccc4)cc3)c3c(N)ncnc3n2C)C1 (stereo not shown) [Example 748] | 0.1 to 0.25 µM | 0.25 to 1 µM
8 | C=CC(=O)N1CCC(c2c(-c3ccc(SC4CCCC4)cc3)c3c(N)ncnc3n2C)C1 (stereo not shown) [Example 749] | < 0.1 µM | ≤ 0.1 µM
9 | C=CC(=O)N1CCC(c2c(-c3ccc(C(=O)N4CCCCC4)cc3)c3c(N)ncnc3n2C)C1 (stereo not shown) [Example 750] | < 0.1 µM | ≤ 0.1 µM
10 | C=CC(=O)N1CCC(c2c(-c3ccc(C4CCOCC4)cc3)c3c(N)ncnc3n2C)C1 (stereo not shown) [Example 751] | 0.25 to 1 µM | 0.1 to 0.25 µM
11 | C=CC(=O)N1CCC(c2c(-c3ccc(CN4CCC(C)(C)C4)cc3)c3c(N)ncnc3n2C)C1 (stereo not shown) [Example 753] | 1 to 100 µM | 1 to 100 µM
12 | C=CC(=O)N1CCC(c2c(-c3ccc(NC(=O)NC4CC4)cc3)c3c(N)ncnc3n2C)C1 (stereo not shown) [Example 755] | < 0.1 µM | 1 to 100 µM
13 | C=CC(=O)N1CCC(c2c(-c3ccc(OC4CC4)cc3)c3c(N)ncnc3n2C)C1 (stereo not shown) [Example 756] | 0.1 to 0.25 µM | ≤ 0.1 µM
14 | C=CC(=O)N1CCC(c2c(-c3csc(CN4CCOCC4)c3)c3c(N)ncnc3n2C)C1 (stereo not shown) [Example 757] | 1 to 100 µM | 1 to 100 µM
15 | C=CC(=O)N1CCC(c2c(-c3ccc(OC4CCC4)cc3)c3c(N)ncnc3n2C)C1 (stereo not shown) [Example 758] | < 0.1 µM | ≤ 0.1 µM
16 | C=CC(=O)N1CCC(c2c(-c3ccc(Oc4ccc(C(F)(F)F)cn4)cc3)c3c(N)ncnc3n2C)C1 (stereo not shown) [Example 759] | 0.25 to 1 µM | 0.25 to 1 µM
17 | C=CC(=O)N1CCC(c2c(-c3ccc(C(=O)c4ccccc4)cc3)c3c(N)ncnc3n2C)C1 (stereo not shown) [Example 760] | < 0.1 µM | ≤ 0.1 µM
18 | C=CC(=O)N1CCC(c2c(-c3ccc(C(=O)C4CC4)cc3)c3c(N)ncnc3n2C)C1 (stereo not shown) [Example 761] | 0.1 to 0.25 µM | 0.1 to 0.25 µM
19 | C=CC(=O)N1CCC(c2c(-c3ccc(C4CCC(=O)N4)cc3)c3c(N)ncnc3n2C)C1 (stereo not shown) [Example 762] | 1 to 100 µM | 1 to 100 µM
20 | C=CC(=O)N1CCC(c2c(-c3ccc(CN4CCCC4)cc3)c3c(N)ncnc3n2C)C1 (stereo not shown) [Example 763] | 0.25 to 1 µM | 0.25 to 1 µM
21 | C=CC(=O)N1CCC(c2c(-c3ccc(CC(=O)N(C)C)cc3)c3c(N)ncnc3n2C)C1 (stereo not shown) [Example 764] | 1 to 100 µM | 1 to 100 µM
22 | C=CC(=O)N1CCC(c2c(-c3ccc(-c4ncc[nH]4)cc3)c3c(N)ncnc3n2C)C1 (stereo not shown) [Example 765] | < 0.1 µM | 1 to 100 µM
23 | C=CC(=O)N1CCC(c2c(-c3ccc(-c4cnn(C)c4)cc3)c3c(N)ncnc3n2C)C1 (stereo not shown) [Example 766] | 0.25 to 1 µM | 0.25 to 1 µM
24 | C=CC(=O)N1CCC(c2c(-c3ccc(-c4noc(C)n4)cc3)c3c(N)ncnc3n2C)C1 (stereo not shown) [Example 767] | 0.25 to 1 µM | 0.1 to 0.25 µM

Row | SMILES | IC50 [1] | IC50 [2]
25 | C=CC(=O)N1CCC(c2c(-c3ccc(-c4ccno4)cc3)c3c(N)ncnc3n2C)C1 (stereo not shown) [Example 768] | 0.25 to 1 µM | 0.1 to 0.25 µM
26 | C=CC(=O)Nc1ccc(-c2[nH]c3ncnc(N)c3c2-c2ccc(Oc3cccc(C)n3)cc2)cc1 [Example 769] | < 0.1 µM | ≤ 0.1 µM
27 | C=CC(=O)N1CCC(c2c(-c3ccc(NC4CCCC4)cc3)c3c(N)ncnc3n2C)C1 (stereo not shown) [Example 771] | 1 to 100 µM | 1 to 100 µM
28 | C=CC(=O)N1CCC(c2c(-c3ccc(Cn4cccn4)cc3)c3c(N)ncnc3n2C)C1 (stereo not shown) [Example 772] | < 0.1 µM | ≤ 0.1 µM
29 | C=CC(=O)N1CCC(c2c(-c3ccc(NC4CCOCC4)cc3)c3c(N)ncnc3n2C)C1 (stereo not shown) [Example 773] | 1 to 100 µM | 1 to 100 µM
30 | CC#CC(=O)N1CCC(c2[nH]c3ncnc(N)c3c2-c2ccc(C(=O)N3CCCC3)cc2)C1 (stereo not shown) [Example 774] | 1 to 100 µM | 1 to 100 µM
31 | C=CC(=O)N1CCC(c2[nH]c3ncnc(N)c3c2-c2ccc(Oc3ccc(C)cn3)cc2)C1 (stereo not shown) [Example 775] | 0.1 to 0.25 µM | 1 to 100 µM
32 | C=CC(=O)N1CCC(c2c(-c3ccc(Cn4ccc(C)n4)cc3)c3c(N)ncnc3n2C)C1 (stereo not shown) [Example 776] | < 0.1 µM | ≤ 0.1 µM
33 | C=CC(=O)N(C)c1ccc(-c2[nH]c3ncnc(N)c3c2-c2ccc(Oc3cccc(C)n3)cc2)cc1 [Example 777] | 1 to 100 µM | 1 to 100 µM
34 | C=CC(=O)N1CCC(c2c(-c3cnn(-c4cccnc4)c3)c3c(N)ncnc3n2C)C1 (stereo not shown) [Example 778] | < 0.1 µM | ≤ 0.1 µM
35 | C=CC(=O)N1CCC(c2c(-c3cnn(-c4ccccn4)c3)c3c(N)ncnc3n2C)C1 (stereo not shown) [Example 779] | 1 to 100 µM | 1 to 100 µM
36 | C=CC(=O)N1CCC(c2c(-c3cnn(CC4CCN(C(C)=O)CC4)c3)c3c(N)ncnc3n2C)C1 (stereo not shown) [Example 780] | 0.25 to 1 µM | 0.25 to 1 µM
37 | C=CC(=O)N1CCC(c2c(C3=CCC(CO)CC3)c3c(N)ncnc3n2C)C1 (stereo not shown) [Example 781] | 1 to 100 µM | 1 to 100 µM
38 | C=CC(=O)N1CCC(c2c(-c3ccc(OC4CNC4)cc3)c3c(N)ncnc3n2C)C1 (stereo not shown) [Example 782] | 1 to 100 µM | 1 to 100 µM
39 | C=CC(=O)N1CCC(c2c(C3=CCN(C(C)=O)CC3(C)C)c3c(N)ncnc3n2C)C1 (stereo not shown) [Example 783] | 0.1 to 0.25 µM | 1 to 100 µM
40 | C=CC(=O)N1CCC(c2c(-c3ccc(C(=O)C4CCCC4)cc3)c3c(N)ncnc3n2C)C1 (stereo not shown) [Example 784] | 1 to 100 µM | 1 to 100 µM
41 | C=CC(=O)N1CCC(c2c(-c3ccc(S(=O)(=O)C4CC4)cc3)c3c(N)ncnc3n2C)C1 (stereo not shown) [Example 785] | < 0.1 µM | ≤ 0.1 µM
42 | C=CC(=O)Nc1ccc(-c2[nH]c3ncnc(N)c3c2-c2ccc(C(=O)N3CCCC3)cc2)cc1 [Example 786] | 0.25 to 1 µM | 1 to 100 µM
43 | CC#CC(=O)Nc1ccc(-c2[nH]c3ncnc(N)c3c2-c2ccc(Oc3cccc(C)n3)c(OC)c2)cc1 [Example 787] | < 0.1 µM | ≤ 0.1 µM
44 | C=C(C)C(=O)Nc1ccc(-c2[nH]c3ncnc(N)c3c2-c2ccc(Oc3cccc(C)n3)c(OCC)c2)cc1 [Example 788] | < 0.1 µM | ≤ 0.1 µM
45 | C=CC(=O)N1CCC(c2c(-c3ccc(CN4CCOCC4=O)cc3)c3c(N)ncnc3n2C)C1 (stereo not shown) [Example 789] | 1 to 100 µM | 1 to 100 µM
46 | C=CC(=O)N1CCC(c2c(-c3ccc(C(O)C4CC4)cc3)c3c(N)ncnc3n2C)C1 (stereo not shown) [Example 790] | 0.25 to 1 µM | 1 to 100 µM
47 | C=CC(=O)N1CCC(c2c(-c3ccc(N(C)C4CCOCC4)cc3)c3c(N)ncnc3n2C)C1 (stereo not shown) [Example 791] | 0.25 to 1 µM | 0.25 to 1 µM

Source: patent US11780845B2 (Relay Therapeutics, Inc., priority 2019, dated 2023)
